Results published in patent US20080132710A1, “ATRASENTAN HYDROCHLORIDE CRYSTALLINE FORM 2” (ABBOTT LABORATORIES, priority 2006, published 2008).
Counter-ions that a name gives are not always drawn.

Experiment: Crystalline form of atrasentan hydrochloride found in solvents over time (conversion to Form 2) at 25° C.
Type: physicochemical
Parameters: key: 1, 2 and 3 mean Atrasentan Hydrochloride Crystalline Forms 1, 2 and 3, respectively.; 1, 2 and 3 mean Atrasentan Hydrochloride Crystalline Forms 1, 2 and 3, respectively.; 1, 2 and 3 mean Atrasentan Hydrochloride Crystalline Forms 1, 2 and 3, respectively
Protocol: Examples of representative solvents that are useful for converting a particular crystalline form of atrasentan hydrochloride to Atrasentan Hydrochloride Crystalline Form 2 having substantial crystalline purity at 25° C. are shown in TABLE 2.

crystalline form present (0.1M HCl, week 1): 1
crystalline form present (0.1M HCl, week 2): 1
crystalline form present (0.1M HCl, week 4): 1
crystalline form present (0.1M HCl, week 9): 2
crystalline form present (0.1M HCl, week 16): 2
crystalline form present (IPA (isopropyl alcohol), week 1): 1
crystalline form present (IPA (isopropyl alcohol), week 2): 1
crystalline form present (IPA (isopropyl alcohol), week 4): 2
crystalline form present (IPA (isopropyl alcohol), week 9): 2
crystalline form present (IPA (isopropyl alcohol), week 16): 2
crystalline form present (PEG 400 (polyethylene glycol), week 1): 1
crystalline form present (PEG 400 (polyethylene glycol), week 2): 1
crystalline form present (PEG 400 (polyethylene glycol), week 4): 1
crystalline form present (PEG 400 (polyethylene glycol), week 9): 1
crystalline form present (PEG 400 (polyethylene glycol), week 16): 2
crystalline form present (acetone, week 1): 2
crystalline form present (acetone, week 2): 2
crystalline form present (acetone, week 4): 2
crystalline form present (acetone, week 9): 2
crystalline form present (acetone, week 16): 2
crystalline form present (ethanol, week 1): 2
crystalline form present (ethanol, week 2): 2
crystalline form present (ethanol, week 4): 2
crystalline form present (ethanol, week 9): 2
crystalline form present (ethanol, week 16): 2
crystalline form present (ethyl acetate, week 1): 1
crystalline form present (ethyl acetate, week 2): 1
crystalline form present (ethyl acetate, week 4): 1
crystalline form present (ethyl acetate, week 9): 2
crystalline form present (ethyl acetate, week 16): 2
crystalline form present (nitromethane, week 1): 3
crystalline form present (nitromethane, week 2): 3
crystalline form present (nitromethane, week 4): 3
crystalline form present (nitromethane, week 9): 3
crystalline form present (nitromethane, week 16): 2
Structure (SMILES): CCCCN(CCCC)C(=O)CN1C[C@H](c2ccc3c(c2)OCO3)[C@@H](C(=O)O)[C@@H]1c1ccc(OC)cc1 [atrasentan hydrochloride, (2R,3R,4S)-(+)-2-(4-methoxyphenyl)-4-(1,3-benzodioxol-5-yl)-1-(N,N-di(n-butyl)aminocarbonylmethyl)pyrrolidine-3-carboxylic acid]
